This passage reports IC50 results from US10202360B2 (CELGENE QUANTICEL RESEARCH, INC., priority 2016, dated 2019).

Where only a bound is given, the exact number is not on record here.

Test [1] addresses BRD4 (Homo sapiens (Human), UniProt O60885). Briefly: In vitro enzyme inhibition assay - BRD4 inhibition (as described in U.S. Pat. No. 9,034,900). The class given is binding. The conditions noted are these: Table 29; BRD4 BD1.
The target of test [2] is CREBBP (Homo sapiens (Human), UniProt Q92793). Put plainly: In vitro enzyme inhibition assay - CREBBP inhibition (AlphaScreen, biotinylated H4-tetraacetyl peptide). The class given is binding. The gist of the method: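 His-tagged CREBBP expressed in E. coli (50 nM final) incubated with biotinylated H4K5/8/12/16(Ac) peptide (20 nM final) in HEPES pH 7.3 buffer, 0.4% DMSO, 20 min at room temperature.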
CREBBP, sequence (Q92793 1081-1197): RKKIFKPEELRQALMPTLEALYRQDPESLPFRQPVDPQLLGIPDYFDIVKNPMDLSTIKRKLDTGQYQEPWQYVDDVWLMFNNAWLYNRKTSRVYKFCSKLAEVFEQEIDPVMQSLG
On the technique in general: In Alpha technology, singlet oxygen from a donor bead excites a nearby acceptor bead.

[3] abbreviates: Table 28, AlphaScreen, H4-tetraacetyl peptide.

Broadly, the IC50 is the concentration needed to halve the response being measured. A high value points to a need for much substance. Take `CCS(=O)(=O)Nc1ncc(Oc2ccc(F)cc2F)c(-c2cc(C)c(=O)n(CC3CC3)c2)n1`: the half-maximal inhibitory concentration (IC50) in test [1] was less than 0.5 µM; in test [2] (Table 29), more than 5 µM. As to `Cc1cccc(Cl)c1Oc1nc(NS(=O)(=O)C(C)C)cc(-c2cc(C)c(=O)n(C)c2)n1` [Example 3, Propane-2-sulfonic acid [2-(2-chloro-6-methyl-phenoxy)-6-(1,5-dimethyl-6-oxo-1,6-dihydro-pyridin-3-yl)-pyrimidin-4-yl]-amide], the IC50 is 0.5 to 5 µM in test [1], less than 0.5 µM in test [2] (setting [3]) and less than 0.5 µM in test [2] (Table 29).

On to `COc1cccc(C#N)c1Oc1nc(NS(=O)(=O)C(C)C)cc(-c2cc(C)c(=O)n(C)c2)n1` [Example 11, Propane-2-sulfonic acid [2-(2-cyano-6-methoxy-phenoxy)-6-(1,5-dimethyl-6-oxo-1,6-dihydro-pyridin-3-yl)-pyrimidin-4-yl]-amide], for which the IC50 was more than 5 µM in test [1], less than 0.5 µM in test [2] (setting [3]) and less than 0.5 µM in test [2] (Table 29). Regarding `CCCCS(=O)(=O)Nc1cc(-c2cc(C)c(=O)n(C)c2)nc(Oc2c(C)cccc2Cl)n1` [Example 14, Butane-1-sulfonic acid [2-(2-chloro-6-methyl-phenoxy)-6-(1,5-dimethyl-6-oxo-1,6-dihydro-pyridin-3-yl)-pyrimidin-4-yl]-amide], the IC50 in test [1] was 0.5 to 5 µM; in test [2] (setting [3]), less than 0.5 µM; in test [2] (Table 29), less than 0.5 µM.

For `Cc1cc(Cl)cc(Cl)c1Oc1nc(NS(=O)(=O)C(C)C)cc(-c2cc(C)c(=O)n(C)c2)n1` [Example 33, Propane-2-sulfonic acid [2-(2,4-dichloro-6-methyl-phenoxy)-6-(1,5-dimethyl-6-oxo-1,6-dihydro-pyridin-3-yl)-pyrimidin-4-yl]-amide], the values for the IC50 in test [1], in test [2] (setting [3]) and in test [2] (Table 29) were more than 5 µM, less than 0.5 µM and less than 0.5 µM, respectively.

For the compound `CCCCS(=O)(=O)Nc1cc(-c2cc(C)c(=O)n(C)c2)nc(Oc2c(Cl)cccc2CC)n1` [Example 41, Butane-1-sulfonic acid [2-(2-chloro-6-ethyl-phenoxy)-6-(1,5-dimethyl-6-oxo-1,6-dihydro-pyridin-3-yl)-pyrimidin-4-yl]-amide], the IC50 in test [1] was more than 5 µM; in test [2] (setting [3]) it was less than 0.5 µM; in test [2] (Table 29), less than 0.5 µM. For the compound `Cc1cc(-c2cc(NS(=O)(=O)C3CCCC3)nc(Oc3ccc(F)cc3F)n2)cn(C)c1=O` [Example 66, N-(2-(2,4-difluorophenoxy)-6-(1,5-dimethyl-6-oxo-1,6-dihydropyridin-3-yl)pyrimidin-4-yl)cyclopentanesulfonamide], the values for the IC50 in test [1], in test [2] (setting [3]) and in test [2] (Table 29) were 0.5 to 5 µM, less than 0.5 µM and less than 0.5 µM, respectively.

`CCCCS(=O)(=O)Nc1cc(-c2ccc(=O)n(C)c2)nc(Oc2c(F)ccc(F)c2C)n1` [Example 350, N-(2-(3,6-difluoro-2-methylphenoxy)-6-(1-methyl-6-oxo-1,6-dihydropyridin-3-yl)pyrimidin-4-yl)butane-1-sulfonamide] came in with an IC50 in test [2] (setting [3]) of less than 0.5 µM. On to `CCC(C)S(=O)(=O)Nc1cc(-c2ccc(=O)n(C)c2)nc(Oc2c(F)ccc(F)c2C)n1` (stereo not shown) [Example 351, N-(2-(3,6-difluoro-2-methylphenoxy)-6-(1-methyl-6-oxo-1,6-dihydropyridin-3-yl)pyrimidin-4-yl)butane-2-sulfonamide], for which the IC50 in test [2] (setting [3]) was less than 0.5 µM. Take `CCCCS(=O)(=O)Nc1nc(Oc2c(C)cccc2F)nc(-c2ccc(=O)n(C)c2)c1F` [Example 352, N-(5-fluoro-2-(2-fluoro-6-methylphenoxy)-6-(1-methyl-6-oxo-1,6-dihydropyridin-3-yl)pyrimidin-4-yl)butane-1-sulfonamide]: the IC50 in test [2] (setting [3]) was less than 0.5 µM. On to `CCCCS(=O)(=O)Nc1cc(-c2ccc(=O)n(C)c2)nc(OC2CCOCC2)n1` [Example 353, N-(6-(1-methyl-6-oxo-1,6-dihydropyridin-3-yl)-2-((tetrahydro-2H-pyran-4-yl)oxy)pyrimidin-4-yl)butane-1-sulfonamide], for which the IC50 in test [2] (setting [3]) was less than 0.5 µM. Take `CCCS(=O)(=O)Nc1cc(-c2ccc(=O)n(C)c2)nc(OC2CCOCC2)n1` [Example 354, N-(6-(1-methyl-6-oxo-1,6-dihydropyridin-3-yl)-2-((tetrahydro-2H-pyran-4-yl)oxy)pyrimidin-4-yl)propane-1-sulfonamide]: the IC50 in test [2] (setting [3]) is less than 0.5 µM. In turn, `CC(C)Oc1nc(NS(=O)(=O)c2ccccc2)cc(-c2ccc(=O)n(C)c2)n1` [Example 355, N-(2-isopropoxy-6-(1-methyl-6-oxo-1,6-dihydropyridin-3-yl)pyrimidin-4-yl)benzenesulfonamide] displayed an IC50 in test [2] (setting [3]) of less than 0.5 µM. On to `Cn1cc(-c2cc3nc(n2)Oc2cccc(c2)OCC=CCCS(=O)(=O)N3)ccc1=O` [Example 356, 5-(10,10-dioxido-2,4-dioxa-10-thia-11-aza-1(2,4)-pyrimidina-3(1,3)-benzenacycloundecaphan-6-en-16-yl)-1-methylpyridin-2(1H)-one], for which the IC50 in test [2] (setting [3]) is less than 0.5 µM. `Cn1cc(-c2cc3nc(n2)Oc2cccc(c2)OCCCCCS(=O)(=O)N3)ccc1=O` [Example 357, 5-(10,10-dioxido-2,4-dioxa-10-thia-11-aza-1(2,4)-pyrimidina-3(1,3)-benzenacycloundecaphane-1^6-yl)-1-methylpyridin-2(1H)-one] gave an IC50 in test [2] (setting [3]) of less than 0.5 µM. On the same count and under the same terms, in the case of `Cn1cc(-c2cc3nc(n2)Oc2cccc(c2)OCCC=CCCS(=O)(=O)N3)ccc1=O` [Example 358, 5-(11,11-dioxido-2,4-dioxa-11-thia-12-aza-1(2,4)-pyrimidina-3(1,3)-benzenacyclododecaphan-7-en-1^6-yl)-1-methylpyridin-2(1H)-one] it was less than 0.5 µM; in that of `Cn1cc(-c2cc3nc(n2)Oc2cccc(c2)OCCCCCCS(=O)(=O)N3)ccc1=O` [Example 359, 5-(11,11-dioxido-2,4-dioxa-11-thia-12-aza-1(2,4)-pyrimidina-3(1,3)-benzenacyclododecaphane-1^6-yl)-1-methylpyridin-2(1H)-one], less than 0.5 µM.

Regarding `Cn1cc(-c2cc3nc(n2)Oc2cc(ccc2Cl)OCC=CCCS(=O)(=O)N3)ccc1=O` [Example 360, 5-(36-chloro-10,10-dioxido-2,4-dioxa-10-thia-11-aza-1(2,4)-pyrimidina-3(1,3)-benzenacycloundecaphan-6-en-1^6-yl)-1-methylpyridin-2(1H)-one], in test [2] (setting [3]), the IC50 was less than 0.5 µM.

Compound `Cn1cc(-c2cc3nc(n2)Oc2cc(ccc2Cl)OCC=CCCCS(=O)(=O)N3)ccc1=O` [Example 361, 5-(36-chloro-11,11-dioxido-2,4-dioxa-11-thia-12-aza-1(2,4)-pyrimidina-3(1,3)-benzenacyclododecaphan-6-en-1^6-yl)-1-methylpyridin-2(1H)-one] gave an IC50 in test [2] (setting [3]) of less than 0.5 µM. On the same count and under the same terms, the result for `Cn1cc(-c2cc3nc(n2)Oc2cc(ccc2F)OCC=CCCCS(=O)(=O)N3)ccc1=O` [Example 362, 5-(36-fluoro-11,11-dioxido-2,4-dioxa-11-thia-12-aza-1(2,4)-pyrimidina-3(1,3)-benzenacyclododecaphan-6-en-1^6-yl)-1-methylpyridin-2(1H)-one] reads less than 0.5 µM. Turning to `Cc1sc2c(c1C)C(c1ccc(Cl)cc1)=N[C@@H](CC(=O)OC(C)(C)C)c1nnc(C)n1-2` [JQ-1, tert-butyl (S)-2-(4-(4-chlorophenyl)-2,3,9-trimethyl-6H-thieno[3,2-f][1,2,4]triazolo[4,3-a][1,4]diazepin-6-yl)acetate, reference compound], the IC50 in test [2] (Table 29) is more than 5 µM.
